For one compound, Km results are on record in publication PMC8872362, “Balanced Polymorphism at the Pgm-1 Locus of the Pompeii Worm Alvinella pompejana and Its Variant Adaptability Is Only Governed by Two QE Mutations at Linked Sites” (Genes, 2022).

This test deals with PGM-1 (recombinant isoform PGM100, E155 E190). In words: G6PD-coupled NADPH assay, Lineweaver-Burk. Format: biochemical, Alvinella pompejana. As to conditions: 50 mM Tris-HCl pH 7.4, 0.5 M MgCl2 (so in the source), 1.2 mM NADP, 0.1 µM G6PD, G1P 0.2-60 mM, 17 °C. An excerpt:
G6PD-coupled NADPH assay, Lineweaver-Burk on PGM-1 (recombinant isoform PGM100, E155 E190)

Where two headings read alike, the source gives them in different places.

For the compound `O=P(O)(O)O[C@H]1O[C@H](CO)[C@@H](O)[C@H](O)[C@H]1O` [G1P, α-D-glucose 1-phosphate], the Km by setting is: (PGM78, natural allele QE, read-out: PGM 78 / 1st Transition) 0.76 ± 0.07 mM; (PGM90, natural allele EQ, read-out: PGM 90 / 1st Transition) 6.25 ± 0.35 mM; (read-out: PGM 100 / 1st Transition) 5.22 ± 0.74 mM.
